Entries after “also recorded” stand apart in the source; their conditions may differ. Ends that are not written are not given here.
How the values were obtained:
[1] = test system: Chondrocytes isolated from articular cartilage; assay: Chondrocyte culture on collagen type II-coated filter, cartilage tissue formation; type: cell-based, calf; details: for toxicity to cells as determined by DNA content: 10 or 100 μg/ml, 2 weeks of treatment (3 weeks culture), FIG. 1
Protocol: Chondrocytes were isolated from articular cartilage obtained aseptically from calf metacarpal-carpal joints and seeded onto collagen type II-coated membrane inserts (Millipore™) (1.5×10^6 cells/12 mm diameter membrane). Chondrocytes were grown in Ham's F-12 supplemented with 5% fetal bovine serum (FBS) under standard culture conditions. After 5 days the serum was increased to 20%. Chondrocytes were then grown in the presence and absence of AOD9604 (SEQ ID NO: 1) (10 or 100 μg/ml) for 2 weeks (total culture time 3 weeks). Fresh AOD was added with each change of media.
The tissue was harvested and digested with papain (Sigma, 40 μg/ml) for 48 h at 65° C. DNA content was determined using the Hoechst 33258 dye binding assay (Polysciences) and fluorometry (excitation 365 nm, emission 458 nm). Proteoglycan content was determined by measuring the amount of sulphated glycosaminoglycans using the dimethylmethylene blue dye binding assay and spectrophotometry (525 nm). Collagen content was determined by measuring the hydroxyproline content of an aliquot of the papain digest hydrolyzed in 6N HCl for 18 h at 110° C. The hydroxyproline content was determined using the chloramine-T/Ehrlich's reagent assay and spectrophotometry (560 nm). The cellularity was quantified by measuring the DNA content using Hoescht 33258 dye binding assay (Polysciences) and fluorometry (excitation 365 nm, emission 458 nm).
(§1) All experiments were done three times and each condition was done in triplicate. The data was expressed as mean±SD. […]. Significance was determined using two way ANOVA followed by Tukey's post hoc test when multiple groups were being evaluated. T test was utilized if 2 groups were being compared. Significance was assigned at p values <0.05.

[2] = test system: contusion to the rectus femoris; assay: Case study: corked quad, hematoma; type: in vivo, human; details: transdermal 600 mcg per dose twice daily, total 20 ml
From the text: The subject was a professional footballer. The athlete incurred a contusion to the rectus femoris adjacent to the central tendon. The MRI indicated an area of 2.0 cm area for the contusion. […] There was a minor degree of associated edema associated with the pathology. The MRI confirmed that there was fibre disruption but no true tear. The central tendon remained intact. The injury was an acute injury. The athlete identified discomfort on weight bearing movement and the mass was easily palpatable. Any hip flexion movement could induce discomfort and awareness of the injury. Although the muscle is not considered a dominant muscle in knee extension movement the affected area was painful and inducing discomfort with such work.
The subject undertook an intervention of AOD9604 (SEQ ID NO: 1) at 600 mcg per dose. They applied one ml twice daily. The transdermal application was at 600 mcg per ml. The total application was 20 ml.

[3] = test system: rabbit collagenase model of osteoarthritis; assay: Rabbit collagenase model of osteoarthritis, intra-articular administration; type: in vivo, New Zealand White Rabbit; details: 4 weekly intra-articular injections of 0.25 mg, 9 weeks post collagenase
Protocol: AOD9604 (SEQ ID NO: 1) was provided by Metabolic Pharmaceutical Pty Ltd.
Treatments groups: 32 rabbits were each given a 2 mg collagenase injection into their right knee joint, followed by a second injection 3 days later to induce osteoarthritis. After 4 weeks, the rabbits were divided into 4 groups of 8 for subsequent treatments.
Group 1 received 4 weekly injections of vehicle (disease control group).
Group 2 received 4 weekly injections of 6 mg of HA-hyuran-plus (HA positive control group).
Group 3 received 4 weekly injections of 0.25 mg of AOD9604 (AOD only group).
Group 4 received 4 weekly injections of both HA and AOD9604 (combination group).
Clinical observations were made by direct observation daily to assess lameness (as described in Kim et al., (2010) supra). At 9 weeks post initial collagenase injection the animals were euthanized.
Gross observation of the right and left knee joints was performed after dissection and scored for damage (as described in Kim et al., (2010) supra). Histological analysis of lateral and medial condyles from each joint was performed and scored.
A statistical analysis of the data was performed and the results are shown in FIGS. 13 (Group 1), 14 (Group 2), 15 (Group 3) and 16 (Group 4).

[4] = test system: osteoblast and osteoclast formation; details: cited from earlier work
IGF-1 = details: effective dose, clinical trials; cited from earlier work
[5] = test system: fibre disruption at the junction of supraspinatus tendon insertion; assay: Case study: shoulder tendon; type: in vivo, human; details: transdermal 600 mcg per dose twice daily, total 30 ml
From the text: The subject was a professional footballer. The athlete incurred some fibre disruption at the junction of supraspinatus tendon insertion. The MRI indicated an area of 1.0 cm within the disruptive pathology. […] Most of the affected area was the muscular portion of the junction. […] The athlete had been restricted in both the range of motion they could employ for the injured site as well as the amount of weight bearing activity they could engage for the area. They had been finding it difficult to abduct the arm at the shoulder joint.
The subject undertook an intervention of AOD9604 (SEQ ID NO: 1) at 600 mcg per dose. They applied one ml twice daily. The transdermal application was at 600 mcg per ml. The total application was 30 ml.

C2C12 cells [6] = assay: C2C12 cell proliferation (DNA content); type: cell-based; details: 10 and 100 μg/ml, 3 days, FIG. 12
Protocol: C2C12 were grown in monolayer culture in DMEM (high glucose) supplemented with 10% fetal bovine serum under standard cell culture conditions. The cells were passaged at 60-70% confluence. The effect of AOD9604 (SEQ ID NO: 1) on cell proliferation was determined by growing the cells (3000 cells/cm^2) in the absence or presence of AOD9604 (10 and 100 μg/ml) for 3 days. The DNA content was then quantified. The cells were digested by papain and DNA content determined using the Hoechst 33258 dye binding assay (Polysciences) and fluorometry (excitation 365 nm, emission 458 nm).
(§2) The data was expressed as mean±SD. The data was expressed as mean±SD. Significance was determined using two way ANOVA followed by Tukey's post hoc test when multiple groups were being evaluated. T test was utilized if 2 groups were being compared. Significance was assigned at p values <0.05.

[7] = test system: tear to the long head of bicep femoris; assay: Case study: hamstring muscle tear; type: in vivo, human; details: transdermal 600 mcg per dose twice daily, total 40 ml
From the text: The subject was a professional footballer. The athlete incurred at 2.0 cm tear to the long head of their bicep femoris. […] Some fibre disruption was noted below the tendon junction coming from the insertion. The length of the tear was 1.5 cm. The fusiform belly region around the injury was highly inflamed.
The subject undertook an intervention of AOD9604 (SEQ ID NO: 1) at 600 mcg per dose. They applied one ml twice daily. The transdermal application was at 600 mcg per ml. The total application was 40 ml.

[8] = test system: symptoms consistent with Clostridium tetani infection; set-up: species or system human; details: in vivo, sc
C2C12 cells [9] = assay: C2C12 differentiation into myoblasts (myogenin staining); type: cell-based
Protocol: C2C12 (2×10^3 cells/cm^2) were grown in DMEM and 10% FBS. Differentiation was induced by replacing growth media with differentiation media which consists of DMEM supplemented with 2% horse serum. The cells were grown in the absence or presence of AOD9604 (10 or 100 μg/ml). The cells were fixed in 4% paraformaldehyde and co-stained for myogenin (a muscle specific muscle marker (transcription factor) 1/250 Tris-Triton X buffer) and Bodipy (cytoplasmic stain, Invitrogen, 1/1000 PBS). The number of cells stained for myogenin were counted in 4 random fields (up to 100 cells/field) (n=4). The percent of cells that stained positively for myogenin was calculated.
as §2

C2C12 cells [10] = assay: C2C12 myotube quantification (Bodipy staining); type: cell-based; details: over 72 hours, FIG. 11
Protocol: For myotube quantification the cells were stained with Bodipy (Invitrogen, 1/1000 PBS) according to the manufacturer's directions. The number of myotubes that developed over 72 hours was determined and expressed as a percent of total cells in culture (n=3, 100 cells/culture).
as §2

[11] = test system: Cartilage explants (native cartilage); assay: Native cartilage explant culture; type: cell-based, calf
Protocol: Cartilage explants were taken from calf metacarpal-carpal joints and placed in culture in Ham's F-12 supplemented with 20% fetal bovine serum (FBS) in the presence and absence of AOD9604 (SEQ ID NO: 1) (10 or 100 μg/ml) for 1 week or (100 or 500 μg/ml) for 2 weeks.
The tissue was harvested and water content and dry weight measured. The tissue was then digested with papain (Sigma, 40 μg/ml) for 48 h at 65° C. DNA content was determined using the Hoechst 33258 dye binding assay (Polysciences) and fluorometry (excitation 365 nm, emission 458 nm). Proteoglycan content was determined by measuring the amount of sulphated glycosaminoglycans using the dimethylmethylene blue dye binding assay and spectrophotometry (525 nm). Collagen content was determined by measuring the hydroxyproline content of an aliquot of the papain digest hydrolyzed in 6N HCl for 18 h at 110° C. The hydroxyproline content was determined using the chloramine-T/Ehrlich's reagent assay and spectrophotometry (560 nm). The cellularity was quantified by measuring the DNA content using Hoescht 33258 dye binding assay (Polysciences) and fluorometry (excitation 365 nm, emission 458 nm.
as §1

1.5 cm tear on soleus = assay: Case study: calf muscle (soleus) tear; type: in vivo, human; details: transdermal 600 mcg per dose twice daily, total 20 ml
From the text: The subject was a professional footballer. The athlete incurred at 1.5 cm tear on their soleus near the adjacent aponeurosis to the gastrocnemius. […] A 1.5 cm tear is considered a moderately large tear for the region. […] The fibre tears were directional with the orientation of the fibres. The length of the tear was 1.5 cm.
The subject undertook an intervention of AOD9604 (SEQ ID NO: 1) at 600 mcg per dose. He applied one ml twice daily. The transdermal application was at 600 mcg per ml. The total application was 20 ml.

C57Bl/6J (Ob/Ob) mouse = details: cited from earlier work

Which results are given for “YLRIVQCRSVEGSCGF (cysteine pairing not given here) [AOD9604]”?
proteoglycan content of the tissue ([1]; 100 μg/ml, 3 weeks of culture, FIG. 2): increasing; collagen content of the tissue ([1]; 100 μg/ml, 3 weeks of culture, FIG. 3): increasing; toxicity to cells as determined by DNA content [1]: not toxic; toxicity to cells as determined by DNA content ([1]; listed as AOD): does not have a toxic effect on cells; pain or discomfort on resumed weight bearing [2]: no immediate pain or discomfort; resolution of injury [2]: resolved in two weeks; return to weight bearing activity [2]: returned to full weight bearing activity; subsequent MRI [2]: return to full anatomical integrity; regeneration compared to control (histological analysis of condyles) [3]: has regenerative power compared to control; formation of osteoclasts [4]: without an increase; osteoblast formation [4]: increased; plasma level of IGF-1 (IGF-1): did not elevate; residual pain or discomfort [5]: no residual pain or discomfort; resolution of injury [5]: resolved in three weeks; return to weight bearing activities [5]: returned to full weight bearing activities and rotation activity; subsequent MRI [5]: full integrity had returned to the junctional area; cell proliferation (C2C12 cells [6]): did not affect; cell proliferation (C2C12 cells [6]; listed as AOD): does not enhance myotube Formation or alter cell proliferation; follow up MRI [7]: full integrity had returned to the bicep femoris long head; residual pain or discomfort [7]: no residual pain or discomfort; resolution of injury [7]: resolved in three weeks; return to weight bearing activities [7]: returned to full weight bearing activities; pain [8]: considerably reduced; resolution of symptoms [8]: fully resolved at around day eight; return to activity [8]: resumed full running and moderate weight lifting activity on day eight; differentiation of C2C12 cells into myoblasts (C2C12 cells [9]; 3 days (72 hours), doses as low as 10 μg/ml, FIG. 10): enhances; differentiation of C2C12 cells into myoblasts (C2C12 cells [9]; 3 days (72 hours), doses as low as 10 μg/ml, FIG. 10, listed as AOD): induces differentiation; differentiation of C2C12 cells into myoblasts (C2C12 cells [9]; after 24 hours of treatment, FIG. 9): induces differentiation; formation of myotubes (C2C12 cells [10]): no affect; formation of myotubes (C2C12 cells [10]; listed as AOD): does not enhance; effect on native cartilage ([11]; 500 μg/ml, FIGS. 5-8): no effect; proteoglycan content of native cartilage ([11]; FIGS. 5 and 7): does not affect; collagen content of native cartilage ([11]; FIGS. 6 and 8): does not affect; toxicity / DNA content of native cartilage ([11]; up to 500 μg/ml, 2 weeks of treatment, FIG. 4, listed as AOD): not toxic; also recorded: no effect; follow up MRI (1.5 cm tear on soleus): full integrity had returned to the injury; residual pain or discomfort (1.5 cm tear on soleus): no residual pain or discomfort; resolution of injury (1.5 cm tear on soleus): resolved in two weeks; return to weight bearing activities (1.5 cm tear on soleus): returned to full weight bearing activities

Which results are given for “hGH 177-191: synthetic peptide corresponding to amino acid residues 177-191 of human growth hormone sequence (LRIVQCRSVEGSCGF; UniProt P01241 203-217, looked up, fragment)”?
adipose tissue mass (C57Bl/6J (Ob/Ob) mouse): reduce; body weight gain (C57Bl/6J (Ob/Ob) mouse): reduce

— patent publication US10111933B2, “Use of growth hormone fragments” (Metabolic Pharmaceuticals Pty Ltd, priority 2011, dated 2018)
